Here are results for 3 compounds from US20230398130A1, “METHODS AND COMPOSITIONS FOR DIFFERENTIATING STEM CELLS” (Massachusetts Institute of Technology, priority 2020, published 2023).

For assay [1], the system named is ISC-enriched organoids. As to the kind of experiment: Primary screen, 384-well 2.5-D organoid differentiation (ENR+CD, 6 days): carbachol-induced lysozyme secretion (LYZ.S). The assay is classed as cell-based, murine. To be noted: primary screen, FC vs plate median. The source says:
(§1) High-throughput screening.

For assay [2], the system named is ISC-enriched organoids. As to the kind of experiment: Primary screen, 384-well 2.5-D organoid differentiation (ENR+CD, 6 days): basal lysozyme secretion (LYZ.NS). The assay is classed as cell-based, murine. Conditions: primary screen; for Dose.FC.LYZ.NS: FC vs plate median; for Z.LYZ.NS: standard z score.
Description: as §1

In assay [3] the test system is ISC-enriched organoids. As to the kind of experiment: Primary screen, 384-well 2.5-D organoid differentiation (ENR+CD, 6 days, Target Selective Inhibitor Library, vs whole-plate median): ATP (CellTiter-Glo 3D, CTG). To be noted: primary screen; for Dose.FC.CTG: FC vs plate median; for Z.CTG: standard z score. In general terms: ATP-based viability assays read luminescence as a measure of living cells.

On to `C[C@@H](Oc1cc(-n2cnc3ccc(CN4CCN(C)CC4)cc32)sc1C(N)=O)c1ccccc1C(F)(F)F` [GSK461364], for which the Dose.FC.LYZ.S with ISC-enriched organoids [1] (Dose 0.08 uM) is given as 0.112 log 2 fold change; in the assay on ISC-enriched organoids [1] (Dose 0.40 uM) it was −0.093 log 2 fold change; with ISC-enriched organoids [1] (Dose 2.00 uM), −0.352 log 2 fold change; with ISC-enriched organoids [1] (Dose 10.00 uM), −0.390 log 2 fold change. Further, the Dose.FC.LYZ.NS with ISC-enriched organoids [2] (Dose 0.08 uM) was 0.078 log 2 fold change; in the assay on ISC-enriched organoids [2] (Dose 0.40 uM) it was −0.096 log 2 fold change; with ISC-enriched organoids [2] (Dose 2.00 uM), −0.246 log 2 fold change; in the assay with ISC-enriched organoids [2] (Dose 10.00 uM), −0.287 log 2 fold change. The Z.LYZ.NS is 0.682 in the assay with ISC-enriched organoids [2] (Dose 0.08 uM), −0.834 in the assay on ISC-enriched organoids [2] (Dose 0.40 uM), −2.138 in the assay on ISC-enriched organoids [2] (Dose 2.00 uM) and −2.498 in the assay on ISC-enriched organoids [2] (Dose 10.00 uM). Also, the Dose.FC.CTG in the assay on ISC-enriched organoids [3] (Dose 0.08 uM) is listed as 0.160 log 2 fold change; in the assay on ISC-enriched organoids [3] (Dose 0.40 uM), −0.154 log 2 fold change; in the assay on ISC-enriched organoids [3] (Dose 2.00 uM), −0.628 log 2 fold change; with ISC-enriched organoids [3] (Dose 10.00 uM), −0.621 log 2 fold change. The Z.CTG was 0.383 with ISC-enriched organoids [3] (Dose 0.08 uM), −0.368 in the assay with ISC-enriched organoids [3] (Dose 0.40 uM), −1.500 with ISC-enriched organoids [3] (Dose 2.00 uM) and −1.484 with ISC-enriched organoids [3] (Dose 10.00 uM).

As to `CCn1c(-c2nonc2N)nc2c(C#CC(C)(C)O)ncc(OC[C@H]3CCCNC3)c21` [GSK690693], the Dose.FC.LYZ.S in the assay with ISC-enriched organoids [1] (Dose 0.08 uM) is reported as 0.019 log 2 fold change; in the assay with ISC-enriched organoids [1] (Dose 0.40 uM) it was 0.155 log 2 fold change; in the assay on ISC-enriched organoids [1] (Dose 2.00 uM), 0.124 log 2 fold change; in the assay with ISC-enriched organoids [1] (Dose 10.00 uM), −0.153 log 2 fold change. Moreover, the Dose.FC.LYZ.NS with ISC-enriched organoids [2] (Dose 0.08 uM) is listed as 0.045 log 2 fold change; in the assay on ISC-enriched organoids [2] (Dose 0.40 uM), 0.047 log 2 fold change; in the assay with ISC-enriched organoids [2] (Dose 2.00 uM), 0.122 log 2 fold change; in the assay with ISC-enriched organoids [2] (Dose 10.00 uM), −0.080 log 2 fold change. Also, the Z.LYZ.NS is given as 0.388 in the assay with ISC-enriched organoids [2] (Dose 0.08 uM), 0.409 in the assay on ISC-enriched organoids [2] (Dose 0.40 uM), 1.060 in the assay with ISC-enriched organoids [2] (Dose 2.00 uM) and −0.698 in the assay with ISC-enriched organoids [2] (Dose 10.00 uM). In addition, the Dose.FC.CTG was 0.129 log 2 fold change in the assay on ISC-enriched organoids [3] (Dose 0.08 uM), 0.197 log 2 fold change with ISC-enriched organoids [3] (Dose 0.40 uM), −0.027 log 2 fold change in the assay on ISC-enriched organoids [3] (Dose 2.00 uM) and −0.182 log 2 fold change with ISC-enriched organoids [3] (Dose 10.00 uM). Also, the Z.CTG with ISC-enriched organoids [3] (Dose 0.08 uM) was 0.308; in the assay on ISC-enriched organoids [3] (Dose 0.40 uM), 0.470; with ISC-enriched organoids [3] (Dose 2.00 uM), −0.064; in the assay with ISC-enriched organoids [3] (Dose 10.00 uM) it was −0.434.

`CC(C)c1noc(N2CCC(COc3ccc(-c4ccc(S(C)(=O)=O)cc4)nc3)CC2)n1` [GSK1292263]: the Dose.FC.LYZ.S in the assay on ISC-enriched organoids [1] (Dose 0.08 uM) came out at 0.111 log 2 fold change; with ISC-enriched organoids [1] (Dose 0.40 uM), 0.101 log 2 fold change; in the assay with ISC-enriched organoids [1] (Dose 2.00 uM) it was 0.060 log 2 fold change; with ISC-enriched organoids [1] (Dose 10.00 uM), 0.027 log 2 fold change. The Dose.FC.LYZ.NS in the assay on ISC-enriched organoids [2] (Dose 0.08 uM) was 0.078 log 2 fold change; with ISC-enriched organoids [2] (Dose 0.40 uM), 0.050 log 2 fold change; in the assay with ISC-enriched organoids [2] (Dose 2.00 uM), 0.028 log 2 fold change; with ISC-enriched organoids [2] (Dose 10.00 uM) it was 0.020 log 2 fold change. Further, the Z.LYZ.NS in the assay with ISC-enriched organoids [2] (Dose 0.08 uM) was determined as 0.681; in the assay with ISC-enriched organoids [2] (Dose 0.40 uM) it was 0.434; in the assay on ISC-enriched organoids [2] (Dose 2.00 uM), 0.240; with ISC-enriched organoids [2] (Dose 10.00 uM), 0.173. Also, the Dose.FC.CTG in the assay with ISC-enriched organoids [3] (Dose 0.08 uM) is on record as 0.161 log 2 fold change; in the assay with ISC-enriched organoids [3] (Dose 0.40 uM), 0.192 log 2 fold change; in the assay with ISC-enriched organoids [3] (Dose 2.00 uM), 0.224 log 2 fold change; with ISC-enriched organoids [3] (Dose 10.00 uM), 0.196 log 2 fold change. In addition, the Z.CTG with ISC-enriched organoids [3] (Dose 0.08 uM) came to 0.384; with ISC-enriched organoids [3] (Dose 0.40 uM) it was 0.458; in the assay with ISC-enriched organoids [3] (Dose 2.00 uM), 0.535; in the assay with ISC-enriched organoids [3] (Dose 10.00 uM), 0.468.
